Read-outs that look alike come from different tables or passages of the source.
Experiments:
Assay type in all cases: cell-based
[1] = system: human cytotoxic T-lymphocyte responses; test: Inhibition of human CTL responses (mixed leukocyte-tumor cultures, HT-144 melanoma, ^51 Cr release); conditions: donor I, 0.01% ethanol, effector to target 6:1; for inhibition at 1 µM / inhibition at 0.1 µM / inhibition at 10 µM: Homo sapiens, T-lymphocyte
Description: Human cells for the tests described below were taken from four donors designated I, II, III, and IV in the tables below.
Stock solutions of Vitamin D derivatives were prepared as they were prepared above in the murine tests.
Human cytotoxic T-lymphocytes were generated in mixed leukocyte-tumor cultures by known methods. Specifically, blood from normal volunteer donors was drawn into heparinized syringes, diluted 1:1 with calcium-magnesium free Hanks' balanced salt solution (Ca-Mg free HBSS), and layered over lymphocyte separation medium (Litton Bionetics, Kensington, MD). After centrifugation at 500xg for 20-30 min at room temperature, peripheral blood mononuclear cells were harvested from the interface. The peripheral blood mononuclear leukocytes were centrifuged and resuspended in Ca-Mg free HBSS and were subsequently separated from platelets by centrifugation at 500xg through a solution of 20% sucrose and 1% human AB serum in Ca-Mg free HBSS. The cells were washed once and finally resuspended in tissue culture medium. […] Cells to be used as stimulator cells in mixed leukocyte-tumor cultures were irradiated with 10,000 rads of gamma irradiation to preclude proliferation in culture. Mixed leukocyte-tumor cell cultures were established in 16 mm tissue culture wells at a final volume of 1.5 ml per well containing 2×10^6 peripheral blood mononuclear leukocytes and 5×10^4 irradiation-inactivated stimulator cells. In order to prevent the generation of nonspecific cytotoxic cells in these cultures, hydrocortisone sodium succinate was added to each culture at a final concentration of 1×10^-5 M. Mixed leukocyte-tumor cultures were incubated for 6 days in a humidified atmosphere of 5% CO2 in air.
Labelled target cells were washed free of unbound isotope by 3 serial washes in tissue culture medium and were finally resuspended at a concentration of 5×10^4 cells per ml.
Assays of human cytotoxic T-lymphocytes were done by known methods. Specifically, one-tenth ml aliquots of ^51 Cr-labelled target cell suspension were added to "half area" microtest plates and were incubated at 37° C. for 18 hours in a humidified atmosphere of 5% CO2 in air to permit the cells to adhere and spread on the floor of each well. Culture medium was then aspirated from each well and was replaced with 0.1 ml of tissue culture medium containing cells harvested from mixed leukocyte-tumor cultures which had been processed as described for murine mixed leukocute cultures, above. Control wells for measurement of spontaneous ^51 Cr release received medium without effector cells and wells for measurement of maximal releasable ^51 Cr received 0.1 ml of 2% sodium dodecyl sulfate in distilled water. After overnight incubation at 37° in a humidified atmosphere of 5% CO2 in air, 0.05 ml of cell-free supernatant was withdrawn from each well and the amount of released ^51 Cr was quantitated using a gamma spectrometer. The percentage of specific ^51 Cr release (CTL activity) and the percent inhibition of CTL activity were calculated with the same formulas used above for the murine CTL assay.
Tests conducted on human cytotoxic T-lymphocyte responses are reported as the mean±standard error of the mean from triplicate ^51 Cr release determinations on pooled cells from duplicate control or test cultures.

[2] = system: IgM production by human lymphocytes; test: Inhibition of IgM production by human lymphocytes in vitro (SAC activation, ELISA); conditions: 8 days, vehicle control 2.49 ± 0.17
Excerpt: (§1) General Test Description Humoral immunity comprises one of the two major arms of the immune system and generally is beneficial. However, a number of disease states are characterized by a hyperactive immune system responding to self tissue antigens. […] In these diseases it would be important to suppress the humoral immune system.
(§2) In the following studies we used established methods to examine the effect of Vitamin D derivatives on the in vitro production of immunoglobulin (Ig) by human peripheral blood leukocytes (PBL) following polyclonal activation. Immunoglobulin was induced from PBL by co-culturing the PBL with the polyclonal B cell activator Staphylococcus aureus strain Cowan I (SAC) for a period of 8 days. The quantity of Ig produced in the culture supernatants was determined by using an enzyme linked immunosorbent assay (ELISA). The effect of Vitamin D derivatives was determined by comparing the amount of antibody produced in cultures containing Vitamin D derivatives to those cultures containing an appropriate concentration of vehicle (ethanol).
(§3) Solutions of vitamin D derivatives. Stock solutions of vitamin D derivatives were prepared as described previously for the murine CTL experiments.
(§4) INDUCTION OF HUMAN IG SECRETION Human peripheral blood mononuclear leukocytes were prepared from one day old buffy coat preparations obtained from the American Red Cross (Lansing, MI). […] Twenty five ml of this preparation were overlayed onto 25 ml of Ficoll-Paque contained in a 50 ml polypropylene centrifuge tube. After centrifugation at 400×g at 15° C. for 40 min, the cells at the interface of the medium and Ficoll were removed and washed 3 times in 50 ml RPMI medium and centrifuged at 300×g for 10 minutes. After the final centrifugation,the cell pellet was suspended in RPMI medium containing 20% fetal bovine serum (FBS) and 80 μg/ml gentamicin. The number of viable cells was determined by trypan blue exclusion and were then suspended to 2.5×10^6 viable cells per ml in RPMI containing 20% FBS and gentamicin. Human PBL were induced to secrete Ig as follows. One hundred microliters of the PBL suspension and an additional 100 μl of a 1:20,000 (v/v) preparation of SAC suspended in RPMI containing 1% FBS were added to each well of a 96-well microtiter plate. Selected wells were also set up without the addition of SAC to serve as negative controls (spontaneous Ig secretion). Each well then received 20 μl of either the appropriate dilution of Vitamin D derivative in RPMI with 1% ethanol or RPMI with 1% ethanol (vehicle control). The vitamin D derivatives were tested at final concentrations of 10^-5, 10^-6, 10^-7, 10^-8, 10^-9, and 10^-10 M and in all cases the vehicle (ethanol) concentration was 0.1%. All treatments were performed in triplicate. […] The samples were then either assayed immediately or stored at -20° C. until assayed by the ELISA technique described below.
(§5) QUANTITATION OF SECRETED IG (ELISA ASSAY) ELISA plates were prepared for quantitating human IgG and IgM levels in culture supernatants as follows. Affinity purified sheep anti-human IgG and goat anti-human IgM (Cappel, Cochranville, PA) were diluted 1:250 and 1:400 respectively, in carbonate coating buffer (0.05M sodium bicarbonate, 0.05M sodium carbonate, 0.15M sodium chloride). One hundred and fifty microliters of the antibody preparation were added to each well of a 96 well ELISA plate (EIA, Costar). The plates were sealed and incubated overnight at 4° C. and on the following day were washed 3 times with distilled water. Each well then received 350 μl of Dulbecco's PBS containing 1 mg/ml bovine serum albumin (BSA) and 0.5 mg/ml sodium azide. The plates were allowed to incubate for 1 hour at 37° C. and then washed 3 times with Dulbecco's PBS containing 0.5% stock Tween 20 (PBS-Tween) followed by 2 washes with distilled water. The plates were air dried and stored desiccated under a vacuum at 4° C. until use.

[3] = system: IgG production by human lymphocytes; test: Inhibition of IgG production by human lymphocytes in vitro (SAC activation, ELISA); conditions: 8 days, vehicle control 0.78 ± 0.09
Excerpt: as §1, §2, §3, §4, §5

Compound | CTL activity (% specific ^51 Cr release) ([1]; Test 1, 1 × 10^-6 molar) | CTL activity (% specific ^51 Cr release) ([1]; Test 1, 1 × 10^-7 molar) | CTL activity (% specific ^51 Cr release) ([1]; Test 2, 1 × 10^-5 molar) | CTL activity (% specific ^51 Cr release) ([1]; Test 2, 1 × 10^-6 molar) | IgM μg per culture (x ± S.E.M.) ([2]; 1 × 10^-6 molar) | IgM μg per culture (x ± S.E.M.) ([2]; 1 × 10^-7 molar) | IgM μg per culture (x ± S.E.M.) ([2]; 1 × 10^-8 molar) | IgM μg per culture (x ± S.E.M.) ([2]; 1 × 10^-9 molar) | IgM μg per culture (x ± S.E.M.) ([2]; 1 × 10^-10 molar) [μg per culture] | IgG μg per culture (x ± S.E.M.) ([3]; 1 × 10^-6 molar) | IgG μg per culture (x ± S.E.M.) ([3]; 1 × 10^-7 molar) | IgG μg per culture (x ± S.E.M.) ([3]; 1 × 10^-8 molar) [μg per culture] | IgG μg per culture (x ± S.E.M.) ([3]; 1 × 10^-9 molar) [μg per culture] | IgG μg per culture (x ± S.E.M.) ([3]; 1 × 10^-10 molar) [μg per culture] | further results
C=C1/C(=C/C=C2\CCC[C@]3(C)[C@@H]([C@H](C)CCCC(C)(C)O)CC[C@@H]23)C[C@@H](O)C[C@@H]1O [5,6-trans-1α,25-(OH)2 --D3, 1α,25-Dihydroxy-5,6-trans-cholecalciferol] | 20 ± 2 | 20 ± 2 | 17 ± 3 | 11 ± 2 | undetectable | 0.04 ± 0.01 μg per culture | 0.50 ± 0.21 μg per culture | 2.36 ± 0.27 μg per culture | 2.79 ± 0.18 | undetectable | 0.01 ± 0.001 μg per culture | 0.21 ± 0.12 | 0.29 ± 0.05 | 0.55 ± 0.16 | inhibition at 1 µM ([1]; read-out: Inhibition of CTL activity (%), Test 1, 1 × 10^-6 molar): 62%; inhibition at 0.1 µM ([1]; read-out: Inhibition of CTL activity (%), Test 1, 1 × 10^-7 molar): 62%; inhibition at 10 µM ([1]; read-out: Inhibition of CTL activity (%), Test 2, 1 × 10^-5 molar): 60%; inhibition at 1 µM ([1]; read-out: Inhibition of CTL activity (%), Test 2, 1 × 10^-6 molar): 74%
C=C1/C(=C\C=C2/CCC[C@]3(C)[C@@H]([C@H](C)CCC(F)(F)C(C)(C)O)CC[C@@H]23)C[C@@H](O)C[C@@H]1O [24,24-(F)2 --1α,25-(OH)2 --D3, 1α,25-Dihydroxy-24,24-difluorocholecalciferol] | 15 ± 1 | 10 ± 1 | 9 ± 2 | 5 ± 2 | undetectable | undetectable | undetectable | undetectable | 0.50 ± 0.12 | undetectable | undetectable | 0.01 ± 0.003 | 0.02 ± 0.02 | 0.11 ± 0.03 | inhibition at 1 µM ([1]; Test 1, 1 × 10^-6 molar, read-out: Inhibition of CTL activity (%)): 71%; inhibition at 0.1 µM ([1]; Test 1, 1 × 10^-7 molar, read-out: Inhibition of CTL activity (%)): 81%; inhibition at 10 µM ([1]; Test 2, 1 × 10^-5 molar, read-out: Inhibition of CTL activity (%)): 83%; inhibition at 1 µM ([1]; Test 2, 1 × 10^-6 molar, read-out: Inhibition of CTL activity (%)): 91%
